Experimental data from ChEMBL document CHEMBL1201862, “PubChem BioAssay data set” (2004).
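Results reflect a 48-hour exposure of cells in 96-well plates to compound at five concentrations. At the GI50, growth is halved.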 Calls of active or inactive are those of the source. Cut-off read from the data, not from the text of the source: active = GI50 up to about 1.1 µM and inactive = higher.

Tests used:
Test in all cases: NCI anticancer screen, dose series, 48 h
HCC 2998 = test system: HCC 2998
K562 = test system: K562
HOP-62 = test system: HOP-62
MDA-N = test system: MDA-N
U-251 = test system: U-251
COLO 205 = test system: COLO 205
DU-145 = test system: DU-145
CCRF-CEM = test system: CCRF-CEM
OVCAR-3 = test system: OVCAR-3
OVCAR-5 = test system: OVCAR-5
IGROV-1 = test system: IGROV-1
RPMI-8226 = test system: RPMI-8226
SN12C = test system: SN12C
NCI-H226 = test system: NCI-H226
OVCAR-4 = test system: OVCAR-4
NCI/ADR-RES = test system: NCI/ADR-RES
M14 = test system: M14
SF-539 = test system: SF-539
SK-MEL-2 = test system: SK-MEL-2
SR = test system: SR

Compound	GI50 (HCC 2998)	GI50 (K562)	GI50 (HOP-62)	GI50 (MDA-N)	GI50 (U-251)	GI50 (COLO 205)	GI50 (DU-145)	GI50 (CCRF-CEM)	GI50 (OVCAR-3)	GI50 (OVCAR-5)	GI50 (IGROV-1)	GI50 (RPMI-8226)	GI50 (SN12C)	GI50 (NCI-H226)	GI50 (OVCAR-4)	GI50 (NCI/ADR-RES)	GI50 (M14)	GI50 (SF-539)	GI50 (SK-MEL-2)	GI50 (SR)
CCOC(=O)[C@H]1O[C@@H]1C(=O)NC(CC(C)C)C(=O)NCCC(C)C (some centres undefined)	> 100 µM (inactive)	> 100 µM (inactive)	> 100 µM (inactive)	> 100 µM (inactive)	> 100 µM (inactive)	> 100 µM (inactive)	> 100 µM (inactive)	> 100 µM (inactive)	> 100 µM (inactive)	> 100 µM (inactive)	> 100 µM (inactive)	> 100 µM (inactive)	> 100 µM (inactive)	> 100 µM (inactive)	> 100 µM (inactive)	> 100 µM (inactive)	> 100 µM (inactive)	> 100 µM (inactive)	–	–
CCCCSC1=N/C(=C\c2ccco2)C(Cl)=N1	> 100 µM (inactive)	–	> 100 µM (inactive)	> 100 µM (inactive)	> 100 µM (inactive)	> 100 µM (inactive)	> 100 µM (inactive)	> 100 µM (inactive)	> 100 µM (inactive)	> 100 µM (inactive)	> 100 µM (inactive)	> 100 µM (inactive)	> 100 µM (inactive)	> 100 µM (inactive)	> 100 µM (inactive)	> 100 µM (inactive)	> 100 µM (inactive)	–	> 100 µM (inactive)	–
COc1ccc2c(c1OC)C(=O)N/C2=C\c1c(CCN(C)C)cc2c(c1OC)OCO2	> 100 µM (inactive)	68.7 µM (inactive)	> 100 µM (inactive)	25.6 µM (inactive)	> 100 µM (inactive)	46.2 µM (inactive)	> 100 µM (inactive)	> 100 µM (inactive)	> 100 µM (inactive)	> 100 µM (inactive)	38.6 µM (inactive)	> 100 µM (inactive)	> 100 µM (inactive)	> 100 µM (inactive)	> 100 µM (inactive)	–	> 100 µM (inactive)	> 100 µM (inactive)	–	> 100 µM (inactive)
C=CCCC(On1c(-c2ccc(Cl)cc2)csc1=S)c1ccccc1 (centres undefined)	–	9.51 µM (inactive)	90.6 µM (inactive)	3.36 µM (inactive)	21.2 µM (inactive)	22.5 µM (inactive)	49.4 µM (inactive)	12.4 µM (inactive)	23 µM (inactive)	> 100 µM (inactive)	20.2 µM (inactive)	31.8 µM (inactive)	47.3 µM (inactive)	26.7 µM (inactive)	38.5 µM (inactive)	13.7 µM (inactive)	13.9 µM (inactive)	26.9 µM (inactive)	14.9 µM (inactive)	–
C/C=C1/CN2CCC34c5ccccc5N(C)C23C2CC1C4(C(=O)OC)C(O)O2 (centres undefined)	> 100 µM (inactive)	> 100 µM (inactive)	> 100 µM (inactive)	> 100 µM (inactive)	> 100 µM (inactive)	> 100 µM (inactive)	> 100 µM (inactive)	> 100 µM (inactive)	> 100 µM (inactive)	> 100 µM (inactive)	> 100 µM (inactive)	> 100 µM (inactive)	> 100 µM (inactive)	> 100 µM (inactive)	> 100 µM (inactive)	> 100 µM (inactive)	> 100 µM (inactive)	> 100 µM (inactive)	> 100 µM (inactive)	–
c1ccc2c(c1)Nc1cccc3c1c-2nc1cc2ccccc2cc13	1.72 µM (inactive)	0.513 µM (active)	1.72 µM (inactive)	1.45 µM (inactive)	2.03 µM (inactive)	1.63 µM (inactive)	1.7 µM (inactive)	–	1.59 µM (inactive)	1.82 µM (inactive)	1.41 µM (inactive)	–	1.69 µM (inactive)	1.85 µM (inactive)	1.87 µM (inactive)	2.2 µM (inactive)	2.12 µM (inactive)	1.8 µM (inactive)	1.48 µM (inactive)	–
Cc1cccc(C)c1NC(=O)/C(CC(=O)CC(c1ccccc1)c1c(O)c2ccccc2oc1=O)=N/O (centres undefined)	> 100 µM (inactive)	–	> 100 µM (inactive)	> 100 µM (inactive)	> 100 µM (inactive)	> 100 µM (inactive)	> 100 µM (inactive)	> 100 µM (inactive)	> 100 µM (inactive)	> 100 µM (inactive)	> 100 µM (inactive)	–	> 100 µM (inactive)	> 100 µM (inactive)	> 100 µM (inactive)	> 100 µM (inactive)	> 100 µM (inactive)	> 100 µM (inactive)	> 100 µM (inactive)	–
Cc1ccc(/N=N/c2c(C)c(C#N)c(=S)n(C3OC(CO)C(O)C(O)C3O)c2-c2ccccc2)cc1 (centres undefined)	41.1 µM (inactive)	8.13 µM (inactive)	24.9 µM (inactive)	8.07 µM (inactive)	14.4 µM (inactive)	25.1 µM (inactive)	38.6 µM (inactive)	11.5 µM (inactive)	19.5 µM (inactive)	28.9 µM (inactive)	31.3 µM (inactive)	28.9 µM (inactive)	31.4 µM (inactive)	–	29 µM (inactive)	29 µM (inactive)	14.6 µM (inactive)	28.5 µM (inactive)	19.5 µM (inactive)	–
NC(=S)Nc1c(S(N)(=O)=O)cc(S(N)(=O)=O)c(Cl)c1Cl	–	> 100 µM (inactive)	> 100 µM (inactive)	> 100 µM (inactive)	> 100 µM (inactive)	> 100 µM (inactive)	> 100 µM (inactive)	> 100 µM (inactive)	> 100 µM (inactive)	> 100 µM (inactive)	> 100 µM (inactive)	> 100 µM (inactive)	> 100 µM (inactive)	> 100 µM (inactive)	> 100 µM (inactive)	> 100 µM (inactive)	> 100 µM (inactive)	0.443 µM (active)	> 100 µM (inactive)	–
CN1CCN(C(=S)N(C)C(=O)c2ccco2)CC1	> 100 µM (inactive)	> 100 µM (inactive)	–	> 100 µM (inactive)	> 100 µM (inactive)	> 100 µM (inactive)	> 100 µM (inactive)	> 100 µM (inactive)	> 100 µM (inactive)	> 100 µM (inactive)	> 100 µM (inactive)	> 100 µM (inactive)	> 100 µM (inactive)	> 100 µM (inactive)	> 100 µM (inactive)	–	> 100 µM (inactive)	–	> 100 µM (inactive)	> 100 µM (inactive)
CCOC(=O)c1nc2cc(C(F)(F)F)ccc2nc1Nc1ccc(C(=O)NC(C(=O)OCC)C(=O)OCC)cc1	49.4 µM (inactive)	43.2 µM (inactive)	13.8 µM (inactive)	> 10 µM (inactive)	14 µM (inactive)	44.4 µM (inactive)	51.6 µM (inactive)	75 µM (inactive)	45.4 µM (inactive)	45.1 µM (inactive)	20.1 µM (inactive)	11.5 µM (inactive)	18.9 µM (inactive)	13.7 µM (inactive)	10.6 µM (inactive)	–	–	–	52.5 µM (inactive)	46.9 µM (inactive)
